PubChem BioAssay (NCI)
Several values for one entry are separate records, joined by “and”; a condition that tells them apart may be missing. Identical values can stand only once.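 48-hour exposure; five concentrations; linearly interpolated endpoints. The concentration for 50% growth inhibition is given as GI50. At the TGI there is no net growth.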

Key:
Test in all cases: inhibition of tumour cell growth, NCI panel, 48 h
HCT-15 colon = system: HCT-15 colon
HL-60(TB) leukemia = system: HL-60(TB) leukemia
SF-295 CNS = system: SF-295 CNS
SNB-75 CNS = system: SNB-75 CNS
UACC-257 melanoma = system: UACC-257 melanoma
DU-145 prostate = system: DU-145 prostate
HOP-92 NSCLC = system: HOP-92 NSCLC
MDA-MB-231 breast = system: MDA-MB-231 breast
NCI/ADR-RES ovarian = system: NCI/ADR-RES ovarian
T-47D breast = system: T-47D breast

SMILES	TGI (HCT-15 colon)	TGI (HL-60(TB) leukemia)	TGI (SF-295 CNS)	TGI (SNB-75 CNS)	TGI (UACC-257 melanoma)	GI50 (DU-145 prostate)	TGI (DU-145 prostate) [µM]	GI50 (HCT-15 colon) [µM]	GI50 (HL-60(TB) leukemia) [µM]	GI50 (HOP-92 NSCLC) [µM]	TGI (HOP-92 NSCLC)	GI50 (MDA-MB-231 breast) [µM]	TGI (MDA-MB-231 breast) [µM]	GI50 (NCI/ADR-RES ovarian) [µM]	TGI (NCI/ADR-RES ovarian) [µM]	GI50 (SF-295 CNS) [µM]	GI50 (SNB-75 CNS) [µM]	GI50 (T-47D breast) [µM]	TGI (T-47D breast) [µM]	GI50 (UACC-257 melanoma) [µM]
COC1CC(OC)C(O)C(CO)O1 (stereo not drawn)	> 100 µM	> 100 µM	> 100 µM	> 100 µM	> 100 µM															
CC#CC(=O)N1CC[C@@H](n2c(=O)n(-c3ccc(Oc4ccccc4)cc3)c3c(N)ncnc32)C1	> 100 µM	77.4 µM	> 100 µM	> 100 µM	> 100 µM	33.5 µM	> 100	26.3	23.5	16.4	68.1 µM	19.5	72.6	24.2	> 100	29.5	29.8	12.2	62.9	51.8
C#Cc1cc(CN(CC(=O)OC(C)(C)C)CC(=O)OC(C)(C)C)nc(CN(CC(=O)OC(C)(C)C)CC(=O)OC(C)(C)C)c1	> 100 µM	9.72 µM	> 100 µM	43.4 µM	9.15 µM															
COC(=O)[C@@]12C=CC(=O)[C@H]3C[C@@H](C(C(C)C)C1)[C@]32OC (stereo partly drawn)	> 100 µM	> 100 µM	> 100 µM	> 100 µM	> 100 µM						> 100 µM									
COC(C)(C)[C@H](O)C(O)CC(C)[C@@H]1CCC23CC12CCC1[C@@]2(C)CCC(OC(C)=O)C(C)(C)C2CC(OC2OC(COC(C)=O)C(O)C(O)C2O)[C@]13C (stereo partly drawn)	6.28 µM and 19.8 µM	3.09 µM and 6.18 µM	10.1 µM and 7.53 µM	11.3 µM and 17.1 µM	11.7 µM and 26 µM			6.86	2.55	4.37	11.6 µM and 16.9 µM					2.17	4.32			11.5
Cc1c(-c2nnc(-c3cc(Cl)c(Cl)cc3Cl)o2)nnn1-c1ccnc2c(C(F)(F)F)cccc12	> 100 µM	> 100 µM	76.2 µM	43.5 µM		19.5 µM	41.6	31.5	40.9	14.4	32.2 µM	20.2	53.2	22.7	57.1	27.6	18.7	21.7	77.4	
CC(CN)[C@@H]1CC[C@]2(CO)CC[C@]3(C)[C@H](CC[C@@H]4[C@@]5(C)CCC(N)C(C)(C)[C@@H]5CC[C@]43C)[C@@H]12 (stereo partly drawn)	3.49 µM		3.41 µM	2.82 µM	3.28 µM	1.8 µM	3.3	1.69		1.45	3.07 µM	1.5	3.05			1.74	1.41	1.84	3.99	1.85
CCOC(=O)c1cc(OC(=O)CC)c2c(OC)ccc(OC)c2c1	96.6 µM			99 µM																
CSC1(CC(=O)N2CCCCC2)C(=O)Nc2ccccc21 (stereo not drawn)	> 100 µM		> 100 µM	> 100 µM	> 100 µM		> 100								> 100				> 100	
CC(C)c1ccc2nc3ccc(C(=O)NCCN4CCN(c5ccccc5)CC4)cn3c(=O)c2c1	> 100 µM		4.91 µM		> 100 µM		> 100						> 100		> 100					
FC(F)(F)c1nc(-c2ccccc2)oc1Sc1oc(-c2ccccc2)nc1C(F)(F)F	> 100 µM	> 100 µM	> 100 µM	> 100 µM	> 100 µM						94.6 µM									
Cc1ccc(NC(=O)CC2C(=O)Nc3ccccc3S2=O)c(C)c1 (stereo not drawn)	25.4 µM	11 µM	29.7 µM	30 µM	> 100 µM						29.8 µM									
COc1ccc(C2C3=C(COC3=O)Oc3cc4c(cc32)OCO4)cc1 (stereo not drawn)	> 100 µM	25 µM	69.6 µM	39.7 µM	> 100 µM						68.1 µM									
Cn1nc2ccccc2cc1=O	> 100 µM		> 100 µM	> 100 µM	> 100 µM						> 100 µM									
C/C=C/C1=CN2C(=O)c3cc(OC4OC(C)C(NC)C(C)(O)C4O)c(C)c(O)c3N=C[C@@H]2C1 (stereo partly drawn)	11 µM	0.34 µM	> 100 µM			0.0617 µM and < 0.01 µM	10.7		0.0603						4.71	< 0.01			15.3	
CCCCCCCCCCCCC(CCCCCCCCCCCC)OP(=O)(O)O	> 100 µM	> 100 µM	> 100 µM	> 100 µM	> 100 µM						> 100 µM									
COC(=O)C1=C(C)N(NC(N)=O)C(C)(O)C12CCOC2=O (stereo not drawn)	> 100 µM	> 100 µM	> 100 µM		> 100 µM						> 100 µM									
CC1=CC(=O)c2ccc(C)cc2C1=O	27.3 µM	5.4 µM	31.6 µM		26.6 µM		35.7				4.2 µM		24.2		> 100				15	
C=C[C@H]1C=Cc2c(OC)cccc2[C@@H]1COP1(=S)NC(C)C(c2ccccc2)O1 (stereo partly drawn)		50.2 µM	> 100 µM	> 100 µM																
O=C(C=Nc1ccccc1C(=O)[O-])c1cccs1.O=C(C=Nc1ccccc1C(=O)[O-])c1cccs1.[Zn+2]	> 100 µM	> 100 µM	42.1 µM	35.3 µM	43 µM						64 µM									
c1ccc2c(c1)[nH]c1c2ncc2[nH]c3ccccc3c21	7.7 µM		11.4 µM	12.1 µM							8.71 µM									
CC(C)c1cccc(C(C)C)c1NC(=O)CCC(=O)NN	37.7 µM	> 100 µM	> 100 µM	> 100 µM	> 100 µM						> 100 µM									
Cc1ccccc1NC(=O)c1ccc([N+](=O)[O-])cc1	> 100 µM	> 100 µM	> 100 µM	> 100 µM	> 100 µM						> 100 µM									
COC(=O)C(=O)C(C(=O)OC)C(=O)C(=O)Nc1cc(Cl)c(Cl)cc1Cl (stereo not drawn)	> 100 µM	> 100 µM	> 100 µM	> 100 µM	> 100 µM						> 100 µM									
CCOC(=O)NC1CC2CCC1(OC)C=C2C (stereo not drawn)	> 100 µM	> 100 µM	> 100 µM	> 100 µM	> 100 µM						> 100 µM									
C[CH2][Sn]([CH2]C)([O]C(=O)c1ccc(F)cc1)[O][Sn]([CH2]C)([CH2]C)[O]C(=O)c1ccc(F)cc1	> 100 µM	> 100 µM	> 100 µM	> 100 µM	> 100 µM			> 100	> 100	19.1	59 µM					> 100	58.5			41.1
